Columns and labels:
[1] = test system: P. falciparum multidrug-resistant strain Dd2; assay: Dd2 growth inhibition, 3H-hypoxanthine assay; type: cell-based, Plasmodium falciparum; conditions: Plasmodium falciparum, DD2, 48 h exposure then 24 h hypoxanthine; read-out: IC50 against Dd2
Procedure: The IC50 was tested by standard in vitro antiproliferation assays (Desjardins et al, 1979 Antimicrob. Agents Chemother 1979, 16, 710-718). Infected erythrocytes in ring stage (0.5% parasitemia, 2.5% hematocrit) in 96-well plates were exposed to the compounds for 48 h and then to radioactive hypoxanthine for 24 h. The amount of radioactivity in precipitable material served as an index of cell proliferation.

Pf-GHA = Pf-GHA growth inhibition, colorimetric NBT-based lactate dehydrogenase assay; type: cell-based; conditions: Plasmodium falciparum; 72 h incubation; read-out: IC50 against Pf-GHA
Procedure: The IC50 values against Pf-GHA and MRC-5 were determined by using the less sensitive colorimetric NBT-based lactate dehydrogenase assay (Makler et al, Am. J. Trop. Med. Hyg. 1993, 48 (6), 739-741) based on redox-reactions.
In Vitro Antiparasitic Bioassays. The strain is maintained in RPMI-1640 medium supplemented with 0.37 mM hypoxanthine, 25 mM HEPES, 25 mM NaHCO3, and 10% O^+ human serum together with 2-4% washed human O^+ erythrocytes. All cultures and assays are conducted under an atmosphere of 4% CO2, 3% O2 and 93% N2. Assays are performed in 96-well microtiter plates, each well containing 10 μL of the watery compound dilutions together with 190 μL of the malaria parasite inoculum (1% parasitaemia, 2% HCT). After 72 h incubation, plates are frozen and stored at −20° C. After thawing, 20 μL of each well is transferred into another plate together with 100 μL Malstat reagent and 20 μL of 1/1 mixture of PES (phenazine ethosulfate, 0.1 mg/mL) and NBT (Nitro Blue Tetrazolium Grade III, 2 mg/mL). Change in colour is measured spectrophotometrically at 655 nm. The results are expressed as % reduction in parasitaemia compared to control wells. Compounds are treated at 5 concentrations (64-16-4-1 and 0.25 μM or μg/mL).

P. berghei ANKA = assay: In vivo 4-day suppressive test in P. berghei-infected mice; parameters: species or system Plasmodium berghei; conditions: for activity on 4-day treatment: P. berghei-infected mice
Procedure: The in vivo tests in the mouse model were done according to a standard protocol (Peters et al Handbook of Animal Models of Infection; Academic Press, London, 1999; pp. 756-771). […] […] For administration, compounds were freshly prepared in 10% DMSO in sterile phosphate-buffered saline the day of use. Two hours post-infection mice received the first treatment by the intraperitoneal route. Mice were further treated on days +1-3. Blood films from tail blood were prepared on day +4, and parasitaemia was determined by microscopic examination of Giemsa-stained blood films. […] […] Mice were treated and levels of parasitemia determined as described.

[2] = target: P. falciparum glutathione reductase (PfGR) (Plasmodium falciparum, UniProt Q94655); assay: 1,4-Naphthoquinone reductase activity of P. falciparum glutathione reductase; type: biochemical; conditions: for increased catalytic efficiency (kcat/KM) with respect to menadione: relative to menadione; for substrate behaviour from catalytic efficiencies kcat/KM: with respect to menadione
Chain of P. falciparum glutathione reductase (PfGR) (Q94655 2-500 limits assumed): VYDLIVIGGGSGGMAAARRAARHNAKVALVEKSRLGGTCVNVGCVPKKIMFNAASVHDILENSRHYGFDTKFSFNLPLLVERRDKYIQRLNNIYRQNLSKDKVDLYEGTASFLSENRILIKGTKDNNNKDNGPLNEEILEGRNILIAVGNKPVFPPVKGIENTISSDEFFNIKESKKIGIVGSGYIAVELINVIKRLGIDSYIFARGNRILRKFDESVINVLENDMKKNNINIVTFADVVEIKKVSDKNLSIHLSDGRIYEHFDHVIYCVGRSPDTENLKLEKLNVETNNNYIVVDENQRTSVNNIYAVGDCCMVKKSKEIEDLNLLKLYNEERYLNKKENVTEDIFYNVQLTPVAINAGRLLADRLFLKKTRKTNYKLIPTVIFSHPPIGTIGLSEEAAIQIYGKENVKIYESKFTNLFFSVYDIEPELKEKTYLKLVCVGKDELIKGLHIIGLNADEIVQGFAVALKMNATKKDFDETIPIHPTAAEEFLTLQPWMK
Procedure: The reduction assay mixture consisted of 100 mM potassium phosphate buffer pH 6.9, 200 mM KCl, 1 mM EDTA and 100 μM NADPH in a total volume of 1 mL. 1,4-naphthoquinone reductase activity was determined by recording the initial velocities in the presence of increasing naphthoquinone concentrations (0-300 μM). […] For the determination of KM and Vmax values, the steady-state rates were fitted by using nonlinear regression analysis software (Kaleidagraph) to the Michaelis-Menten equation. From these values, the turnover number kcat and the catalytic efficiency kcat/KM were calculated.

Row | IC50 [1] [nM] | Compound | IC50 (Pf-GHA) [nM] | decrease in parasitaemia (P. berghei ANKA; daily dose of 50 mg/kg ip, 4-day test, mice) [%] | activity on 4-day treatment (P. berghei ANKA; intraperitoneal) | melting point [°C] | reduction in parasitaemia (P. berghei ANKA; daily dose of 30 mg/kg, intraperitoneal, 4-day test, mice) [%] | increased catalytic efficiency (kcat/KM) with respect to menadione [2] [fold] | substrate behaviour from catalytic efficiencies kcat/KM [2] | Km ([2]; pH 6.9, 100 μM NADPH, 1% DMSO) [µM]
1 | < 100 | CC1=C(Cc2ccc(Br)cc2)C(=O)C2C=CC=CC2C1=O (centres unmarked) [P_TM24, 2-Methyl-3-(4-bromo-benzyl)-4a,8a-dihydro-[1,4]naphthoquinone] | < 5000 | 35.6 | significant activity | 121 to 122 |  |  |  | 
2 | < 100 | CC1=C(Cc2ccc(C(C)(C)C)cc2)C(=O)C2C=CC=CC2C1=O (centres unmarked) [P_TM43, 2-Methyl-3-(4-tert-butyl-benzyl)-4a,8a-dihydro-[1,4]naphthoquinone] |  |  | significant activity | 60 to 61 | 43.4 |  |  | 
3 |  | CC1=C(CC2=CC(=O)C=CC2=O)C(=O)C2C=CC=CC2C1=O (centres unmarked) [P_TM63, 2-(3,6-Dioxo-cyclohexa-1,4-dienylmethyl)-3-methyl-4a,8a-dihydro-[1,4]naphthoquinone] |  |  |  |  |  | 17.2 | very effective substrates | 
4 |  | COc1ccc(C(=O)C2=C(C)C(=O)C3C=CC=CC3C2=O)cc1 (centres unmarked) [P_TM34, 2-Methyl-3-(4-methoxy-benzoyl)-4a,8a-dihydro-[1,4]naphthoquinone] |  |  |  | 150 to 151 |  |  | very effective substrates | 
5 |  | 2-Methyl-3-(fluoro-benzoyl)-4a,8a-dihydro-[1,4]naphthoquinone [P_TM27] |  |  |  |  |  |  | very effective substrates | 56.1
6 |  | CC1=C(C(=O)c2ccc(Br)cc2)C(=O)C2C(O)=CC=CC2C1=O (centres unmarked) [P_TM47, 3-(4-bromo-benzoyl)-5-hydroxy-2-methyl 4a,8a-dihydro-[1,4]naphthoquinone] |  |  |  | 161 to 162 |  | 6.3 | very effective substrates | 
7 |  | CC1=C(C(=O)c2ccc(O)cc2)C(=O)C2C=CC=CC2C1=O (centres unmarked) [P_TM39, 2-Methyl-3-(4-hydroxy-benzoyl)-4a,8a-dihydro-[1,4]naphthoquinone] | < 5000 |  |  | 184 to 185 |  |  | very effective substrates | 
8 | < 100 | CC1=C(Cc2ccc(O)cc2)C(=O)C2C=CC=CC2C1=O (centres unmarked) [P_TM36, 2-Methyl-3-(4-hydroxy-benzyl)-4a,8a-dihydro-[1,4]naphthoquinone] | < 5000 |  | significant activity | 165 to 166 |  |  |  | 

Row | Compound | IC50 [1] [nM] | IC50 (Pf-GHA) [nM] | decrease in parasitaemia (P. berghei ANKA; daily dose of 50 mg/kg ip, 4-day test, mice) [%] | activity on 4-day treatment (P. berghei ANKA; intraperitoneal) | melting point [°C] | reduction in parasitaemia (P. berghei ANKA; daily dose of 30 mg/kg, intraperitoneal, 4-day test, mice) [%] | increased catalytic efficiency (kcat/KM) with respect to menadione [2] [fold] | substrate behaviour from catalytic efficiencies kcat/KM [2] | Km ([2]; pH 6.9, 100 μM NADPH, 1% DMSO) [µM]
9 | CC1=C(C(=O)c2ccc([N+](=O)[O-])cc2)C(=O)C2C=CC=CC2C1=O (centres unmarked) [P_TM40, 2-Methyl-3-(4-nitro-benzoyl)-4a,8a-dihydro-[1,4]naphthoquinone] | 103 |  |  |  | 170 to 171 |  | 3.9 | very effective substrates | 

From patent publication US9090549B2, “1,4-naphthoquinones derivatives and therapeutic use thereof” (CENTRE NATIONAL DE LA RECHERCHE SCIENTIFIQUE (C.N.R.S.), priority 2008, dated 2015)
